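Dose response: 5 concentrations. Exposure: 48 h. Format: 96-well plates. Endpoint: linear interpolation; highest concentration if not reached. At the GI50, growth is halved.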 Activity calls are given as the source filed them. Rule as the data show it: active = GI50 up to about 1.1 µM and inactive = higher.
How the values were obtained:
Assay in all cases: growth of human tumour cells (NCI), 48 h
SW-620 = tested on: SW-620
SR = tested on: SR
Hs-578T = tested on: Hs-578T
EKVX = tested on: EKVX
M14 = tested on: M14
NCI-H23 = tested on: NCI-H23
TK-10 = tested on: TK-10
HCT-116 = tested on: HCT-116
UO-31 = tested on: UO-31
HOP-92 = tested on: HOP-92
MOLT-4 = tested on: MOLT-4
UACC-257 = tested on: UACC-257
RXF 393 = tested on: RXF 393
OVCAR-8 = tested on: OVCAR-8
T47D = tested on: T47D
SK-OV-3 = tested on: SK-OV-3
SF-539 = tested on: SF-539

Row | Structure (SMILES) | GI50 (SW-620) | GI50 (SR) | GI50 (Hs-578T) | GI50 (EKVX) | GI50 (M14) | GI50 (NCI-H23) | GI50 (TK-10) | GI50 (HCT-116) | GI50 (UO-31) | GI50 (HOP-92) | GI50 (MOLT-4) | GI50 (UACC-257) | GI50 (RXF 393) | GI50 (OVCAR-8) | GI50 (T47D) | GI50 (SK-OV-3) | GI50 (SF-539)
1 | C=CCNC1=C2C[C@@H](C)C[C@@H](OC)[C@H](OC(=O)CCN)[C@H](C)/C=C(\C)[C@@H](OC(N)=O)[C@H](OC)/C=C\C=C(/C)C(=O)NC(=CC1=O)C2=O | 3.6 µM (inactive) | 0.938 µM (active) | 14.5 µM (inactive) | 8.75 µM (inactive) | 3.71 µM (inactive) | 3.01 µM (inactive) | 2.17 µM (inactive) | 3.53 µM (inactive) | 11.2 µM (inactive) | 4.49 µM (inactive) | 3.86 µM (inactive) | 2.42 µM (inactive) | 4.66 µM (inactive) | 4.18 µM (inactive) | 4.89 µM (inactive) | 1.35 µM (inactive) | –
2 | O=C1C[C@H](CCC(=O)OCc2ccccc2)NC(=O)C[C@H](CCC(=O)OCc2ccccc2)NC(=O)C[C@H](CCC(=O)OCc2ccccc2)N1 | > 100 µM (inactive) | > 100 µM (inactive) | 5.24 µM (inactive) | > 100 µM (inactive) | > 100 µM (inactive) | 52.8 µM (inactive) | 6.24 µM (inactive) | 26.2 µM (inactive) | > 100 µM (inactive) | 3.92 µM (inactive) | > 100 µM (inactive) | > 100 µM (inactive) | 2.36 µM (inactive) | > 100 µM (inactive) | 44.3 µM (inactive) | 5.92 µM (inactive) | 5.64 µM (inactive)
3 | O=C(Cn1c(C(=O)/C=C/c2ccc(Cl)c(Cl)c2)nc2ccccc21)c1ccccc1 | 33.3 µM (inactive) | 25 µM (inactive) | 27.3 µM (inactive) | 14.4 µM (inactive) | 23.2 µM (inactive) | 31.6 µM (inactive) | 27.9 µM (inactive) | 15.9 µM (inactive) | 24.8 µM (inactive) | 25.2 µM (inactive) | 27.9 µM (inactive) | 27.7 µM (inactive) | 24 µM (inactive) | – | 31 µM (inactive) | 28.6 µM (inactive) | 21.9 µM (inactive)
4 | Clc1ccc(-c2cn3c(nc4ccccc43)c(-c3ccccc3)n2)cc1 | 43.3 µM (inactive) | > 82 µM (inactive) | 12.3 µM (inactive) | 64.3 µM (inactive) | 28.3 µM (inactive) | 24.5 µM (inactive) | 22 µM (inactive) | 29.9 µM (inactive) | 24.2 µM (inactive) | 18 µM (inactive) | > 100 µM (inactive) | 61.2 µM (inactive) | 15.6 µM (inactive) | 12.1 µM (inactive) | 36.6 µM (inactive) | 11.6 µM (inactive) | 22.3 µM (inactive)
5 | c1c[nH]c(CN2CCN(Cc3ncc[nH]3)CC2)n1 | > 100 µM (inactive) | > 100 µM (inactive) | > 100 µM (inactive) | 52.2 µM (inactive) | > 100 µM (inactive) | > 100 µM (inactive) | > 100 µM (inactive) | > 100 µM (inactive) | > 100 µM (inactive) | > 100 µM (inactive) | > 100 µM (inactive) | > 100 µM (inactive) | > 100 µM (inactive) | > 100 µM (inactive) | > 100 µM (inactive) | > 100 µM (inactive) | > 100 µM (inactive)
6 | CC(C)(C)C1=CC(=C(c2ccc(-c3c4nc(c(-c5ccc(C(=C6C=C(C(C)(C)C)C(=O)C(C(C)(C)C)=C6)c6cc(C(C)(C)C)c(O)c(C(C)(C)C)c6)cc5)c5ccc([nH]5)c(-c5ccc(C(=C6C=C(C(C)(C)C)C(=O)C(C(C)(C)C)=C6)c6cc(C(C)(C)C)c(O)c(C(C)(C)C)c6)cc5)c5nc(c(-c6ccc(C(=C7C=C(C(C)(C)C)C(=O)C(C(C)(C)C)=C7)c7cc(C(C)(C)C)c(O)c(C(C)(C)C)c7)cc6)c6ccc3[nH]6)C=C5)C=C4)cc2)c2cc(C(C)(C)C)c(O)c(C(C)(C)C)c2)C=C(C(C)(C)C)C1=O | > 100 µM (inactive) | > 100 µM (inactive) | > 100 µM (inactive) | > 100 µM (inactive) | > 100 µM (inactive) | > 100 µM (inactive) | > 100 µM (inactive) | > 100 µM (inactive) | > 100 µM (inactive) | > 100 µM (inactive) | > 100 µM (inactive) | > 100 µM (inactive) | > 70.8 µM (inactive) | > 100 µM (inactive) | > 100 µM (inactive) | > 100 µM (inactive) | > 100 µM (inactive)
7 | COc1ccc(C(=O)c2sc(N(C)C)nc2-c2ccccc2)cc1 | 30.9 µM (inactive) | 17.1 µM (inactive) | 38.7 µM (inactive) | – | 35.3 µM (inactive) | 34.5 µM (inactive) | 37.9 µM (inactive) | 31 µM (inactive) | 32.1 µM (inactive) | 91.6 µM (inactive) | 81.3 µM (inactive) | 26.1 µM (inactive) | 54.3 µM (inactive) | – | 33.6 µM (inactive) | 22.5 µM (inactive) | 58.7 µM (inactive)
8 | COc1ccc2c(c1)c1c(n2CCN2CCOCC2)-c2cccc(OC)c2CC1 | 36.8 µM (inactive) | 10 µM (inactive) | 35 µM (inactive) | – | 26.5 µM (inactive) | 52.8 µM (inactive) | 44.6 µM (inactive) | 33.7 µM (inactive) | 18.6 µM (inactive) | 45.8 µM (inactive) | 23.2 µM (inactive) | 58.5 µM (inactive) | 24.2 µM (inactive) | 46.8 µM (inactive) | 59 µM (inactive) | > 100 µM (inactive) | 33.3 µM (inactive)
9 | CC(C)(C)OC(=O)n1c2ccccc2c2c(=O)nc(N3CCCCC3)sc21 | > 100 µM (inactive) | 90.4 µM (inactive) | > 100 µM (inactive) | > 100 µM (inactive) | > 100 µM (inactive) | > 100 µM (inactive) | > 100 µM (inactive) | – | 22.3 µM (inactive) | > 100 µM (inactive) | > 100 µM (inactive) | > 100 µM (inactive) | – | > 100 µM (inactive) | > 100 µM (inactive) | > 100 µM (inactive) | > 100 µM (inactive)
10 | CN(C)c1ccc(/C=C2\N=C(c3ccccc3)N(c3nc4c(Cl)cc(Cl)cc4s3)C2=O)cc1 | 46.6 µM (inactive) | 32.1 µM (inactive) | 27 µM (inactive) | 21.8 µM (inactive) | 75.7 µM (inactive) | – | 85.7 µM (inactive) | 35.2 µM (inactive) | 43.8 µM (inactive) | 24.5 µM (inactive) | 22.6 µM (inactive) | 47 µM (inactive) | – | 61.9 µM (inactive) | 52.5 µM (inactive) | > 100 µM (inactive) | > 100 µM (inactive)
11 | COC(=O)C(Cc1ccccc1)NC(=O)CCCNC(=O)OCc1ccccc1 (centres undefined) | > 100 µM (inactive) | 44.7 µM (inactive) | > 100 µM (inactive) | > 100 µM (inactive) | 17.1 µM (inactive) | > 100 µM (inactive) | > 100 µM (inactive) | > 100 µM (inactive) | > 100 µM (inactive) | 99.1 µM (inactive) | 29.2 µM (inactive) | – | < 0.01 µM (active) | > 100 µM (inactive) | 71.3 µM (inactive) | > 100 µM (inactive) | –
12 | NC(=S)NNC(=S)NC(=O)c1ccco1 | > 10 µM (inactive) | > 10 µM (inactive) | > 10 µM (inactive) | > 10 µM (inactive) | > 10 µM (inactive) | > 10 µM (inactive) | – | > 10 µM (inactive) | > 10 µM (inactive) | > 10 µM (inactive) | > 10 µM (inactive) | > 10 µM (inactive) | > 10 µM (inactive) | > 10 µM (inactive) | > 10 µM (inactive) | > 10 µM (inactive) | –
13 | Nc1ccc(Oc2ccc(C34CC5CC(C3)CC(c3ccc(Oc6ccc(N)cc6)cc3)(C5)C4)cc2)cc1 | > 25.5 µM (inactive) | 3.56 µM (inactive) | 20.2 µM (inactive) | 25.4 µM (inactive) | 10.4 µM (inactive) | 7.8 µM (inactive) | 10.3 µM (inactive) | 7.55 µM (inactive) | 33 µM (inactive) | 6.05 µM (inactive) | – | 9.86 µM (inactive) | 12.8 µM (inactive) | 5.26 µM (inactive) | 6.84 µM (inactive) | 22.2 µM (inactive) | 13.7 µM (inactive)
14 | O=C(Nc1ccccc1Cl)c1cc(S(=O)(=O)Nc2n[nH]c(=O)n2-c2ccccc2)c(S)cc1Cl | > 100 µM (inactive) | > 100 µM (inactive) | > 100 µM (inactive) | > 100 µM (inactive) | > 100 µM (inactive) | > 100 µM (inactive) | – | > 10 µM (inactive) | > 100 µM (inactive) | > 100 µM (inactive) | > 100 µM (inactive) | > 100 µM (inactive) | > 100 µM (inactive) | > 100 µM (inactive) | > 100 µM (inactive) | > 100 µM (inactive) | > 100 µM (inactive)
15 | CC(=O)OCc1cn(S(=O)(=O)c2ccc(C)cc2)cn1 | 43 µM (inactive) | 9.51 µM (inactive) | 36.5 µM (inactive) | > 100 µM (inactive) | 25.3 µM (inactive) | > 100 µM (inactive) | > 100 µM (inactive) | 24 µM (inactive) | > 100 µM (inactive) | > 100 µM (inactive) | 46.5 µM (inactive) | – | > 100 µM (inactive) | > 100 µM (inactive) | > 100 µM (inactive) | > 100 µM (inactive) | 16.4 µM (inactive)
16 | CN(C)CCNc1ncnc2[nH]c(-c3ccc4ccccc4c3)nc12 | > 100 µM (inactive) | > 100 µM (inactive) | > 100 µM (inactive) | > 100 µM (inactive) | > 100 µM (inactive) | > 100 µM (inactive) | > 100 µM (inactive) | > 100 µM (inactive) | > 100 µM (inactive) | – | > 100 µM (inactive) | > 100 µM (inactive) | > 100 µM (inactive) | > 100 µM (inactive) | > 100 µM (inactive) | > 100 µM (inactive) | –
